Earlier results in US10716771B2, “Pharmaceutical composition for preventing or treating immune diseases or inflammatory diseases, containing biguanide derivative compound as active ingredient” (THE CATHOLIC UNIVERSITY OF KOREA INDUSTRY-ACADEMIC …, priority 2013, dated 2020).

Tested on: TNF-α
Conditions: stated as known; cited from earlier work

Question: Which “effect of blocking TNF-α” value does the source give for `CN(C)C(=N)N=C(N)N` [Metformin] here?
Answer: slight effect
